# Biological target: recombinant human GST-Syk (Homo sapiens (Human), UniProt P43405)
# Assay: Homogeneous Time-Resolved Fluorescence (HTRF) assay for the recombinant human Syk enzyme
# Format: biochemical
# Conditions: recombinant human GST-Syk 5 pM, ATP 25 μM, read-out: rhSyk IC50
# Protocol: Syk inhibition may be determined using the following assay protocol: Homogeneous Time-Resolved Fluorescence (HTRF) Assay for the Recombinant Human Syk Enzyme: A recombinant GST-hSyk fusion protein was used to measure potency of compounds to inhibit human Syk activity. […] To initiate the reaction the biotinylated substrate peptide (250 nM final concentration) that contains the phosphorylation site for Syk was added with magnesium (5 mM final concentration) and ATP (25 μM final concentration). […] Final volume of the quenching solution was 10 μL.
row,SMILES,IC50
1,"COC(=O)C1CCC(O)(c2ccc(-c3cc(C)cc(Nc4cc(C(F)(F)F)ccn4)n3)cn2)CC1(C)C (single isomer, unassigned) [Example 1-6]",405 nM
2,"COC(=O)C1CCC(O)(c2ccc(-c3cc(C)cc(Nc4cc(C(F)(F)F)ccn4)n3)cn2)CC1(C)C (single isomer, unassigned) [Example 1-7]",245 nM
3,"COC(=O)C1CCC(O)(c2ccc(-c3cc(C)cc(Nc4cc(C(F)(F)F)ccn4)n3)cn2)CC1(C)C (single isomer, unassigned) [Example 1-9]",100 nM
4,"Cc1cc(Nc2cc(C(F)(F)F)ccn2)nc(-c2ccc([C@]3(O)CC[C@H](C(N)=O)C(C)(C)C3)nc2)c1 (single isomer, unassigned) [Example 8, (1S,4S or 1R,4R)-4-Hydroxy-2,2-dimethyl-4-(4-methyl-6-{[4-(trifluoromethyl)pyridin-2-yl]amino}-2,3′-bipyridin-6′-yl)cyclohexanecarboxamide]",23 nM
5,"COC(=O)[C@H]1CC[C@H](C(C)(O)c2ccc(-c3cc(C)cc(Nc4cc(C(F)F)ccn4)n3)cn2)CC1 (single isomer, unassigned) [Example 11, Methyl trans-4-[(1R or 1S)-(6-{[4-(difluoromethyl)pyridin-2-yl]amino}-4-methyl-2,3′-bipyridin-6′-yl)-1-hydroxyethyl]cyclohexanecarboxylate]",9 nM
6,"Cc1cc(Nc2cc(C(F)F)ccn2)nc(-c2ccc(C(C)(O)[C@H]3CC[C@H](C(=O)OCCO)CC3)nc2)c1 (single isomer, unassigned) [Example 18, 2-Hydroxyethyl trans-4-[(1R or 1S)-1-(6-{[4-(difluoromethyl)pyridin-2-yl]amino}-4-methyl-2,3′-bipyridin-6′-yl)-1-hydroxyethyl]cyclohexanecarboxylate]",3.4 nM
7,"Cc1cc(Nc2cc(C(F)F)ccn2)nc(-c2ccc(C(C)(O)[C@H]3CC[C@H](C(=O)OCc4ccccc4)CC3)nc2)c1 (single isomer, unassigned) [Example 19-1, benzyl trans-4-[(1R or 1S)-1-(6-{[4-(difluoromethyl)pyridin-2-yl]amino}-4-methyl-2,3′-bipyridin-6′-yl)-1-hydroxyethyl] cyclohexanecarboxylate]",35 nM
8,"CCCOC(=O)[C@H]1CC[C@H](C(C)(O)c2ccc(-c3cc(C)cc(Nc4cc(C(F)F)ccn4)n3)cn2)CC1 (single isomer, unassigned) [Example 19-2, propyl trans-4-[(1R or 1S)-1-(6-{[4-(difluoromethyl)pyridin-2-yl]amino}-4-methyl-2,3′-bipyridin-6′-yl)-1-hydroxyethyl] cyclohexanecarboxylate]",32 nM
9,"Cc1cc(Nc2cc(C(F)F)ccn2)nc(-c2ccc(C(C)(O)[C@H]3CC[C@H](C(=O)OC(C)C)CC3)nc2)c1 (single isomer, unassigned) [Example 19-3, propan-2-yl trans-4-[(1R or 1S)-1-(6-{[4-(difluoromethyl)pyridin-2-yl]amino}-4-methyl-2,3′-bipyridin-6′-yl)-1-hydroxyethyl] cyclohexanecarboxylate]",50 nM

# Now those with a lower IC50, led by results:
row,IC50,SMILES
1,< 0.5 nM,"Cc1cc(Nc2cc(C(F)(F)F)ccn2)nc(-c2ccc(C(C)(O)[C@H]3CC[C@H](C(=O)O)CC3)nc2)c1 (single isomer, unassigned) [Example 1, trans-4-((1R or 1S)-1-Hydroxy-1-(4-methyl-6-(4-(trifluoromethyl)pyridin-2-ylamino)-2,3′-bipyridin-6′-yl)ethyl)cyclohexanecarboxylic acid]"
2,< 0.5 nM,"Cc1cc(Nc2cc(C(F)(F)F)ccn2)nc(-c2ccc(NC3CCC(C(=O)O)C(C)C3)nc2)c1 (single isomer, unassigned) [Example 3-2]"
3,1 nM,"Cc1cc(Nc2cc(C(F)(F)F)ccn2)nc(-c2ccc(NC3CCC(C(=O)O)C(C)C3)nc2)c1 (single isomer, unassigned) [Example 3-3]"
4,< 0.5 nM,"Cc1cc(Nc2cc(C(F)(F)F)ccn2)nc(-c2ccc(NC3CCC(C(=O)O)C(C)(C)C3)nc2)c1 (single isomer, unassigned) [Example 3-4]"
5,2 nM,"Cc1cc(Nc2cc(C(F)(F)F)ccn2)nc(-c2ccc(NC3CCC(C(=O)O)C(C)(C)C3)nc2)c1 (single isomer, unassigned) [Example 3-5]"
6,< 0.5 nM,"Cc1cc(Nc2cc(C(F)F)ccn2)nc(-c2ccc(C(C)(O)[C@H]3CC[C@H](C(=O)O)CC3)nc2)c1 (single isomer, unassigned) [Example 12, trans-4-[(1R or 1S)-(6-{[4-(Difluoromethyl)pyridin-2-yl]amino}-4-methyl-2,3′-bipyridin-6′-yl)-1-hydroxyethyl]cyclohexanecarboxylic acid]"
7,1 nM,"Cc1cc(Nc2cc(C(F)F)ccn2)nc(-c2ccc(C(C)(O)C3CCC(C(=O)O)CC3)nc2)c1 (single isomer, unassigned) [Example 12-1, trans-4-[(1R or 1S)-(6-{[4-(difluoromethyl)pyridin-2-yl]amino}-4-methyl-2,3′-bipyridin-6′-yl)-1-hydroxyethyl]cyclohexanecarboxylic acid]"
8,< 0.5 nM,"Cc1cc(Nc2cc(C(F)F)ccn2)nc(-c2ccc(C(C)(O)[C@H]3CC[C@@H](C(=O)O)CC3)nc2)c1 (single isomer, unassigned) [Example 12-2, cis-4-[(1R or 1S)-(6-{[4-(difluoromethyl)pyridin-2-yl]amino}-4-methyl-2,3′-bipyridin-6′-yl)-1-hydroxyethyl]cyclohexanecarboxylic acid]"
9,1 nM,"Cc1cc(Nc2cc(C(F)F)ccn2)nc(-c2ccc(C(C)(O)[C@H]3CC[C@@H](C(=O)O)CC3)nc2)c1 (single isomer, unassigned) [Example 12-3, cis-4-[(1R or 1S)-(6-{[4-(difluoromethyl)pyridin-2-yl]amino}-4-methyl-2,3′-bipyridin-6′-yl)-1-hydroxyethyl]cyclohexanecarboxylic acid]"
10,< 0.5 nM,"Cc1cc(Nc2cc(C(F)F)ccn2)nc(-c2ccc(C(C)(F)[C@H]3CC[C@H](C(=O)O)CC3)nc2)c1 (single isomer, unassigned) [Example 13, trans-4-(1R or 1S)-(6-(4-(Difluoromethyl)pyridin-2-ylamino)-4-methyl-2,3′-bipyridin-6′-yl)-1-fluoroethyl)cyclohexanecarboxylic acid]"
11,< 0.5 nM,"Cc1cc(Nc2cc(C(F)(F)F)ccn2)nc(-c2ccc(C(C)[C@H]3CC[C@H](C(=O)O)CC3)nc2)c1 (single isomer, unassigned) [Example 14, trans-4-[(1R or 1S)-(4-Methyl-6-{[4-(trifluoromethyl)pyridin-2-yl]amino}-2,3′-bipyridin-6′-yl)ethyl]cyclohexanecarboxylic acid]"
12,1 nM,"Cc1cc(Nc2cc(C(F)F)ccn2)nc(-c2ccc(C(C)(O)[C@H]3CC[C@H](C(=O)O)CC3)nc2)c1Br (single isomer, unassigned) [Example 15, trans-4-((1R or 1S)-(3-Bromo-6-(4-(difluoromethyl)pyridin-2-ylamino)-4-methyl-2,3′-bipyridin-6′-yl)-1-hydroxyethyl)cyclohexanecarboxylic acid]"
13,< 0.5 nM,"Cc1cc(Nc2cc(C(F)F)ccn2)nc(-c2ccc(C(C)(O)[C@H]3CC[C@H](C(=O)O)CC3)nc2)c1 (single isomer, unassigned) [Example 16, Sodium trans-4-[(1R or 1S)-1-(6-{[4-(difluoromethyl)pyridin-2-yl]amino}-4-methyl-2,3′-bipyridin-6′-yl)-1-hydroxyethyl]cyclohexanecarboxylate]"
